Laboratory results from paper PMC2409936, “Phase I and pharmacokinetic study of XR11576, an oral topoisomerase I and II inhibitor, administered on days 1–5 of a 3-weekly cycle in patients with advanced solid tumours” (British Journal of Cancer, 2004).

Key:
[1] = system: human colon and small-cell lung cancer xenografts; set-up: method as in Mistry et al, 2002; Lewis et al, 2003; details: ref Mistry et al, 2002, Lewis et al, 2003; cited from earlier work
[2] = system: dogs; details: cited from earlier work
[3] = mice; cited from earlier work
[4] = system: animals; details: in animals; cited from earlier work
[5] = system: patients with advanced solid tumours; experiment: Phase I toxicity assessment (NCI-CTC version 2.0), oral XR11576 days 1–5 every 21 days; format: in vivo
Procedure: The total dose prescribed was rounded to the nearest 5 mg. […] Dose escalations between cohorts were based on the prior dose level's toxicity and pharmacological data, allowing a dose escalation up to 100% (which was determined by the worst significant toxicity). […] The stopping dose was defined as the dose level that induced dose-limiting toxicity (DLT) during course 1 in ⩾2/3 or ⩾2/6 patients. Dose-limiting toxicities were defined as grade 4 granulocytopenia for 7 or more days, febrile neutropenia, platelets <25.0 × 10^9 l^−1 and/or nonhaematological toxicity ⩾grade 3. Nausea and vomiting subsequently responding to antiemetic therapy were excluded from DLT. […] If a patient encountered DLT, the dose of XR11576 was decreased by one dose level at re-treatment. […] At the dose recommended for further studies, the number of patients treated could be expanded to 12. Toxicities were evaluated according to the National Cancer Institute Common Toxicity Criteria, version 2.0 (ctep.info.nih.gov/reporting/in dex.html).
Before treatment, a complete medical history was recorded and a physical examination performed. A complete blood count (CBC) including white blood cell differential and serum biochemistry, which involved sodium, potassium, calcium, urea, creatinine, uric acid, total protein, albumin, total bilirubin, alkaline phosphatase, γ-glutamyl transferase, aspartate aminotransferase, alanine aminotransferase, lactate dehydrogenase and glucose, were performed, as were urinalysis, pregnancy test, relevant tumour markers, electrocardiogram and a chest X-ray. […] Weekly evaluations included history, physical examination, toxicity assessment according to the CTC criteria version 2.0, and serum chemistries. Complete blood count was determined twice weekly. Tumour evaluation was performed after every two courses according to the Response Evaluation Criteria in Solid Tumours (RECIST) ([Therasse et al, 2000]). Patients were taken off protocol at the onset of disease progression.

[6] = orally on days 1–5 every 3 weeks

COc1cccc2c1ccc1nc3cccc(C(=O)N[C@H](C)CN(C)C)c3nc12 [XR11576, 4-methoxy-benzo[a]phenazine-11-carboxylic acid (2-dimethulamino-1-R-methyl-ethyl)-amide]
activity against xenografts in vivo [1]: highly active
maximum tolerated dose (MTD) ([2]; 8/9-day oral administration schedule): 200 mg m^−2
toxicities observed ([2]; i.v. doses repeatedly administered): myocarditis and nephritis
effect of food on bioavailability [3]: food reduced the bioavailability
oral availability [3]: 72±25%
predominantly induced toxicity [4]: bone marrow and gastrointestinal toxicity
nausea and vomiting, median duration ([5]; 30 mg): 2 days
nausea and vomiting, range of duration ([5]; 30 mg): 1 to 5 days
Diarrhoea grade 1, worse toxicity per cycle ([5]; 30 mg day^−1, all cycles): 1
Fatigue grade 1, worse toxicity per cycle ([5]; 30 mg day^−1, all cycles): 1
Fatigue grade 2, worse toxicity per cycle ([5]; 30 mg day^−1, all cycles): 2
Nausea grade 1, worse toxicity per cycle ([5]; 30 mg day^−1, all cycles): 3
Nausea grade 2, worse toxicity per cycle ([5]; 30 mg day^−1, all cycles): 2
Vomiting grade 1, worse toxicity per cycle ([5]; 30 mg day^−1, all cycles): 3
Fatigue grade 1, no. of patients ([5]; 30 mg day^−1, first cycle): 1
Fatigue grade 2, no. of patients ([5]; 30 mg day^−1, first cycle): 1
Nausea grade 1, no. of patients ([5]; 30 mg day^−1, first cycle): 2
Diarrhoea grade 1, worse toxicity per cycle ([5]; 60 mg day^−1, all cycles): 1
Fatigue grade 1, worse toxicity per cycle ([5]; 60 mg day^−1, all cycles): 2
Fatigue grade 2, worse toxicity per cycle ([5]; 60 mg day^−1, all cycles): 2
Fatigue grade 3, worse toxicity per cycle ([5]; 60 mg day^−1, all cycles): 2
Nausea grade 1, worse toxicity per cycle ([5]; 60 mg day^−1, all cycles): 6
Vomiting grade 1, worse toxicity per cycle ([5]; 60 mg day^−1, all cycles): 4
Diarrhoea grade 1, no. of patients ([5]; 60 mg day^−1, first cycle): 1
Fatigue grade 1, no. of patients ([5]; 60 mg day^−1, first cycle): 1
Fatigue grade 3, no. of patients ([5]; 60 mg day^−1, first cycle): 1
Nausea grade 1, no. of patients ([5]; 60 mg day^−1, first cycle): 3
Vomiting grade 1, no. of patients ([5]; 60 mg day^−1, first cycle): 2
Diarrhoea grade 1, worse toxicity per cycle ([5]; 120 mg day^−1, all cycles): 3
Diarrhoea grade 2, worse toxicity per cycle ([5]; 120 mg day^−1, all cycles): 3
Diarrhoea grade 3, worse toxicity per cycle ([5]; 120 mg day^−1, all cycles): 1
Fatigue grade 1, worse toxicity per cycle ([5]; 120 mg day^−1, all cycles): 5
Fatigue grade 2, worse toxicity per cycle ([5]; 120 mg day^−1, all cycles): 5
Fatigue grade 3, worse toxicity per cycle ([5]; 120 mg day^−1, all cycles): 1
Nausea grade 1, worse toxicity per cycle ([5]; 120 mg day^−1, all cycles): 8
Nausea grade 2, worse toxicity per cycle ([5]; 120 mg day^−1, all cycles): 7
Plt grade 1, worse toxicity per cycle ([5]; 120 mg day^−1, all cycles): 1
Vomiting grade 1, worse toxicity per cycle ([5]; 120 mg day^−1, all cycles): 3
Vomiting grade 2, worse toxicity per cycle ([5]; 120 mg day^−1, all cycles): 5
Vomiting grade 3, worse toxicity per cycle ([5]; 120 mg day^−1, all cycles): 2
WBC grade 1, worse toxicity per cycle ([5]; 120 mg day^−1, all cycles): 2
DLT, no. of patients ([5]; 120 mg day^−1, first cycle): 1
Diarrhoea grade 1, no. of patients ([5]; 120 mg day^−1, first cycle): 1
Diarrhoea grade 2, no. of patients ([5]; 120 mg day^−1, first cycle): 2
Diarrhoea grade 3, no. of patients ([5]; 120 mg day^−1, first cycle): 1
Fatigue grade 1, no. of patients ([5]; 120 mg day^−1, first cycle): 3
Fatigue grade 2, no. of patients ([5]; 120 mg day^−1, first cycle): 3
Nausea grade 1, no. of patients ([5]; 120 mg day^−1, first cycle): 5
Nausea grade 2, no. of patients ([5]; 120 mg day^−1, first cycle): 3
Vomiting grade 1, no. of patients ([5]; 120 mg day^−1, first cycle): 1
Vomiting grade 2, no. of patients ([5]; 120 mg day^−1, first cycle): 2
Vomiting grade 3, no. of patients ([5]; 120 mg day^−1, first cycle): 2
WBC grade 1, no. of patients ([5]; 120 mg day^−1, first cycle): 1
ANC grade 4, worse toxicity per cycle ([5]; 150 mg day^−1, all cycles): 1
Diarrhoea grade 1, worse toxicity per cycle ([5]; 150 mg day^−1, all cycles): 1
Diarrhoea grade 2, worse toxicity per cycle ([5]; 150 mg day^−1, all cycles): 1
Diarrhoea grade 3, worse toxicity per cycle ([5]; 150 mg day^−1, all cycles): 1
Fatigue grade 2, worse toxicity per cycle ([5]; 150 mg day^−1, all cycles): 4
Nausea grade 1, worse toxicity per cycle ([5]; 150 mg day^−1, all cycles): 2
Nausea grade 2, worse toxicity per cycle ([5]; 150 mg day^−1, all cycles): 2
Plt grade 1, worse toxicity per cycle ([5]; 150 mg day^−1, all cycles): 1
Vomiting grade 1, worse toxicity per cycle ([5]; 150 mg day^−1, all cycles): 1
Vomiting grade 2, worse toxicity per cycle ([5]; 150 mg day^−1, all cycles): 3
WBC grade 2, worse toxicity per cycle ([5]; 150 mg day^−1, all cycles): 1
ANC grade 4, no. of patients ([5]; 150 mg day^−1, first cycle): 1
DLT, no. of patients ([5]; 150 mg day^−1, first cycle): 1
Diarrhoea grade 1, no. of patients ([5]; 150 mg day^−1, first cycle): 1
Diarrhoea grade 2, no. of patients ([5]; 150 mg day^−1, first cycle): 1
Diarrhoea grade 3, no. of patients ([5]; 150 mg day^−1, first cycle): 1
Fatigue grade 2, no. of patients ([5]; 150 mg day^−1, first cycle): 3
Nausea grade 1, no. of patients ([5]; 150 mg day^−1, first cycle): 1
Nausea grade 2, no. of patients ([5]; 150 mg day^−1, first cycle): 2
Plt grade 1, no. of patients ([5]; 150 mg day^−1, first cycle): 1
Vomiting grade 2, no. of patients ([5]; 150 mg day^−1, first cycle): 3
WBC grade 2, no. of patients ([5]; 150 mg day^−1, first cycle): 1
ANC grade 3, worse toxicity per cycle ([5]; 180 mg day^−1, all cycles): 1
Diarrhoea grade 1, worse toxicity per cycle ([5]; 180 mg day^−1, all cycles): 1
Diarrhoea grade 2, worse toxicity per cycle ([5]; 180 mg day^−1, all cycles): 1
Diarrhoea grade 4, worse toxicity per cycle ([5]; 180 mg day^−1, all cycles): 1
Fatigue grade 1, worse toxicity per cycle ([5]; 180 mg day^−1, all cycles): 1
Fatigue grade 2, worse toxicity per cycle ([5]; 180 mg day^−1, all cycles): 1
Fatigue grade 3, worse toxicity per cycle ([5]; 180 mg day^−1, all cycles): 2
Nausea grade 1, worse toxicity per cycle ([5]; 180 mg day^−1, all cycles): 3
Nausea grade 2, worse toxicity per cycle ([5]; 180 mg day^−1, all cycles): 1
Nausea grade 3, worse toxicity per cycle ([5]; 180 mg day^−1, all cycles): 1
Plt grade 1, worse toxicity per cycle ([5]; 180 mg day^−1, all cycles): 2
Vomiting grade 2, worse toxicity per cycle ([5]; 180 mg day^−1, all cycles): 5
ANC grade 3, no. of patients ([5]; 180 mg day^−1, first cycle): 1
DLT, no. of patients ([5]; 180 mg day^−1, first cycle): 1
Diarrhoea grade 1, no. of patients ([5]; 180 mg day^−1, first cycle): 1
Diarrhoea grade 2, no. of patients ([5]; 180 mg day^−1, first cycle): 1
Fatigue grade 1, no. of patients ([5]; 180 mg day^−1, first cycle): 1
Fatigue grade 2, no. of patients ([5]; 180 mg day^−1, first cycle): 1
Fatigue grade 3, no. of patients ([5]; 180 mg day^−1, first cycle): 1
Nausea grade 1, no. of patients ([5]; 180 mg day^−1, first cycle): 3
Plt grade 1, no. of patients ([5]; 180 mg day^−1, first cycle): 2
Vomiting grade 2, no. of patients ([5]; 180 mg day^−1, first cycle): 3
patients in whom DLT was encountered ([5]; 180 mg day^−1 dose level): two of three patients
diarrhoea grade 1–2, share of cycles ([5]; all cycles): 26%
diarrhoea grade 3–4, share of cycles ([5]; all cycles): 6%
diarrhoea, median day of onset ([5]; all dose levels): 5 days
diarrhoea, median duration ([5]; all dose levels): 4 days
diarrhoea, range of day of onset ([5]; all dose levels): 1 to 15 days
diarrhoea, range of duration ([5]; all dose levels): 1 to 14 days
overall haematological toxicity ([5]; all dose levels): mild
patients with grade 1 anaemia ([5]; all dose levels): seven patients
patients with grade 2 anaemia ([5]; all dose levels): four patients
recommended dose for further studies ([5]; days 1–5 every 3 weeks): 120 mg/day
nausea and vomiting, median duration ([5]; dose level 180 mg): 6 days
nausea and vomiting, range of duration ([5]; dose level 180 mg): 1 to 20 days
patients who developed grade 1 alopecia ([5]; during treatment): one patient
patients with grade 4 neutropenia ([5]; heavily pretreated patient, not complicated by fever): one patient
treatment-related deaths ([5]; in vivo): No treatment-related deaths
patients with thrombocytopenia ([5]; limited to grade 1 and 2): three patients
dose-limiting toxicities (DLT) [5, 6]: diarrhoea and fatigue
maximum tolerated dose (MTD) [5, 6]: 180 mg/day
abnormalities in ECG tracings ([5]; prior to treatment and following first drug administration): No significant abnormalities
